Where two headings read alike, the source gives them in different places.
How the values were obtained:
[1] = system: pAKT in Tet-on KRAS G12D HeLa cells; test: Cell-based pAKT HTRF assay in Tet-on KRAS G12D HeLa cells; details: Tet-on KRAS G12D HeLa cells; read-out: pAKT inhibition IC50 in Tet-on KRAS G12D HeLa cells
Description: To determine the effectiveness of compounds in disrupting PIK3CA/KRAS signaling in cells, we implemented pAKT HTRF assay (Perkin-Elmer) in Tet-on KRAS G12D HeLa cells.
On Day 1, cells were seeded into 96-well plates at 2×10^4 cells/well in complete growth media (DMEM, 10% Tet-Screened FBS) supplemented with 200 ng/mL doxycycline.
On Day 2, cells were treated with compounds at 0.25% DMSO. The source plate was created with compounds diluted in media at 5-fold the final assay concentration. The compounds are run in a 9-point concentration curve starting at 75 μM, with a 3-fold dilution between concentrations. […] 20 μL was transferred onto the cell plates (final volume in wells was 100 μL). Plates were harvested after 30 min and 4 hr incubation by aspirating media and adding kit-supplied 1× supplemented lysis buffer to all wells (50 μL per well). This then changed to 4 hr only when compounds became covalent. Plates were then placed on a plate shaker and incubated at 850 rpm for an additional 30 min. The antibody mixture solution was prepared by diluting aliquoted d2 and Eu Cryptate antibodies 1:20 in kit supplied detection buffer, then mixed the diluted antibodies solutions (1:1 v:v). 4 μL of this solution was then added to a 384-well detection plate (Perkin Elmer; 6008230). Samples were homogenized by pipetting up and down and then transferred (16 μL of cell lysates) from the 96-well cell culture plate to two wells of the HTRF 384-well detection plate containing the antibody solution. Plates were centrifuged (524 g for 1 min) and allowed to incubate between 4 and 24 h at room temperature. The maximum signal is reached after 4 h incubation time and remains stable over a period of 24 hours. Therefore, readings can be made between 4 and 24 h of incubation. Plates were centrifuged again (524 g for 1 min), and analyzed on the EnVision plate reader using the following settings: Excitation 320 nm, Bandwidth […]; Emission 615 nm, Bandwidth […], Gain 100%, Flashes 100, Lag 60 μs.

[2] = molecular target: KRAS-PI3Kα interaction (KRAS-Q25A binding to avi-tagged full length PI3Kα) (Homo sapiens (Human), UniProt P42336); test: Disrupting KRAS-PI3Kα interaction by SPR inhibition assay; details: KRAS-Q25A at 20 μM, 25° C.
Sequence of KRAS-PI3Kα interaction (KRAS-Q25A binding to avi-tagged full length PI3Kα) (P42336 whole entry, looked up, stated change not applied): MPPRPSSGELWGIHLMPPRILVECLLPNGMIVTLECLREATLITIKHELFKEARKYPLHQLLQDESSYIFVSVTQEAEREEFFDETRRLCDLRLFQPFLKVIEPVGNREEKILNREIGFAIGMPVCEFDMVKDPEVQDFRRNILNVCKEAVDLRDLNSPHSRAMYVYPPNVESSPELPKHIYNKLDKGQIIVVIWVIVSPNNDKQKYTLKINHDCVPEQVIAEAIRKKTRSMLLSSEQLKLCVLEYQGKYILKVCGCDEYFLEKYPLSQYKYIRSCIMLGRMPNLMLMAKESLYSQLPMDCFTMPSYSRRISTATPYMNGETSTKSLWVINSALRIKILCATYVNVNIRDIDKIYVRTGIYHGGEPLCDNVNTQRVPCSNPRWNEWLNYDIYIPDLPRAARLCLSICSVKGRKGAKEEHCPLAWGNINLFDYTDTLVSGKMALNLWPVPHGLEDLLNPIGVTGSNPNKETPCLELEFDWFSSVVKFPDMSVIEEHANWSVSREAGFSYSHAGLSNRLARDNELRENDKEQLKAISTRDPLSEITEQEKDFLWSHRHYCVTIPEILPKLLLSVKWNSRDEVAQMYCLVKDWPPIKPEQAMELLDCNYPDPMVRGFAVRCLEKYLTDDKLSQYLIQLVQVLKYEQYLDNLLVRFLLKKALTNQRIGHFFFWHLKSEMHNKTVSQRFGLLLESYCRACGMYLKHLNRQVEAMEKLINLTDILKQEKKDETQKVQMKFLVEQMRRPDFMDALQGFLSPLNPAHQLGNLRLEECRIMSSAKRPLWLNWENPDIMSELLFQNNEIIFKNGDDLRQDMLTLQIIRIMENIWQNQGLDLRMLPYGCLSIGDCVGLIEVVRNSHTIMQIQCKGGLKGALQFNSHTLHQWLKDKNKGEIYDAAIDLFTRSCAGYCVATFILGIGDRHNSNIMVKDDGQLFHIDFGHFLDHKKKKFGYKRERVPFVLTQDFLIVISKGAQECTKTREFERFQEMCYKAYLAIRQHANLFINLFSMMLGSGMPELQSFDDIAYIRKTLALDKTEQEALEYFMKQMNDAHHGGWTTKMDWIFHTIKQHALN
Sequence of KRAS-PI3Kα interaction (KRAS-Q25A binding to avi-tagged full length PI3Kα) (P27986 whole entry partner, looked up): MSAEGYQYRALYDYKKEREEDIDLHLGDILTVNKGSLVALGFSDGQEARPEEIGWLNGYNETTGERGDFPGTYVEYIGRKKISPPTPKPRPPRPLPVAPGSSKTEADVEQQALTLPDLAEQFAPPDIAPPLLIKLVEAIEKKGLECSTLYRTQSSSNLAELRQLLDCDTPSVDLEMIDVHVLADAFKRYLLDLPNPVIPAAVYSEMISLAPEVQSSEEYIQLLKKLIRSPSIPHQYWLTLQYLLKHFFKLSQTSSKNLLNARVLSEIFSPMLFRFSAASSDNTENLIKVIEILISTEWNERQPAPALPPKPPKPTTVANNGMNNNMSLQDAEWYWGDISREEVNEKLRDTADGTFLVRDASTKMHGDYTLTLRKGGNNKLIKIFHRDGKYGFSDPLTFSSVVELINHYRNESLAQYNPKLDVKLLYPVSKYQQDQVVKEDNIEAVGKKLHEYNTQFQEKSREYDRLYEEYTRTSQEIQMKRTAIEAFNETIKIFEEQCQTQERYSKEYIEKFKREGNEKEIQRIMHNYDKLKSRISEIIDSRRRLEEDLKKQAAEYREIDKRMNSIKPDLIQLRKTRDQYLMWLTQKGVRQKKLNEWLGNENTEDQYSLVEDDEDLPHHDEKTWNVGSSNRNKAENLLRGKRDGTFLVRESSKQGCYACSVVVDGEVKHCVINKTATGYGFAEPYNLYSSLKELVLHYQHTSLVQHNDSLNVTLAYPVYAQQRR
Description: SPR binding experiments were collected on a Biacore 8K Instrument (Cytiva). Neutravidin (Pierce) was amine coupled to the carboxymethylated dextran surface of a CM5 sensor chip (Cytiva) using standard amine coupling chemistry. The CM5 chip surface was first activated with 0.1 M N-hydroxy succinimide and 0.4 M N-ethyl-N′-(3-dimethyl aminopropyl) carbodiimide at a flow rate of 20 μL/min using 20 mM HEPES pH 7.4, 150 mM NaCl as the running buffer. Next, neutravidin was diluted to 20 μg/mL in 10 mM sodium acetate (pH 4.5) and injected on all flow cells until a density of approximately 10,000 response units (RU) was immobilized. Activated amine groups were quenched with an injection of 1 M ethanolamine (pH 8.0). 300-500 RU of avi-tagged full length PI3Kα was captured on all flow cells in 20 mM HEPES pH 7.4, 150 mM NaCl, 5 mM MgCl2, 1 mM TCEP, 0.05% tween 20, 5% DMSO buffer. KRAS-Q25A at 20 μM was mixed with 8 concentrations of compound (50 nM-100 μM) and injected over the full-length PI3Kα at 30 μL/min and 25° C. Steady-state levels of KRAS binding were recorded and fit with a 4-parameter inhibition model to determine the IC50 values.

pAKT in BT474 cells = test: Cell-based pAKT HTRF assay in BT474 cells; details: BT474 cells, 4 hr incubation, Compounds 10-999, read-out: pAKT inhibition IC50 in BT474 cells
How it was run: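 BT474 cells in DMEM/10% FBS were treated the day after seeding with a 9-point, 3-fold compound series from 3 μM (0.25% DMSO) for 4 hr. Lysates were mixed with d2 and Eu cryptate anti-pAKT antibodies and incubated 4-24 h at room temperature. HTRF was read with excitation at 320 nm and emission at 615 nm.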

[3] = molecular target: Cys242 in human PIK3CA (157-299) (Homo sapiens (Human), UniProt P42336); test: Covalent modification assay using MALDI-TOF MS; type: biochemical; details: 4 h reaction time point; 3.33 μM protein target, 1:7.5 protein to compound ratio (compounds 1-852)
Sequence of Cys242 in human PIK3CA (157-299) (P42336 157-299): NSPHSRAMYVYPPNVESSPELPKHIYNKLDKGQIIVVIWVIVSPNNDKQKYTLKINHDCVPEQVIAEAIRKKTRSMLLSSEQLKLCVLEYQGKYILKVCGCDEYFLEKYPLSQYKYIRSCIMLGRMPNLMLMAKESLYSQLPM
How it was run: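 PIK3CA (157-299) at 3.33 μM or 1 μM in 20 mM HEPES, 150 mM NaCl, 2 mM MgCl2, pH 7.3 was incubated with compound (from 10 mM DMSO stocks) in the dark at room temperature for 15 min, 30 min, 2 h or 4 h. Linear-mode MALDI-TOF peak heights gave percent modification.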

| Structure (SMILES) | IC50 [1] [µM] | IC50 [2] [µM] | IC50 (pAKT in BT474 cells) [µM] | IC50 (pAKT in BT474 cells; Homo sapiens, BT-474) [µM] | % of modification [3] |
| --- | --- | --- | --- | --- | --- |
| C=CC(=O)Nc1ccc2nc(-c3nc(-c4ccc5c(c4)CCNC5)c4ccsc4c3-c3ccc(F)cc3OCCOC)[nH]c2c1 [Compound 23, N-[2-[7-[4-fluoro-2-(2-methoxyethoxy)phenyl]-4-(1,2,3,4-tetrahydroisoquinolin-6-yl)thieno[3,2-c]pyridin-6-yl]-3H-benzimidazol-5-yl]prop-2-enamide] |  | > 25 |  | 1 to 3 | A (percent of modification of PIK3CA protein ≥75%) |
| COCCOc1ccccc1-c1c(-c2cccc(C#N)c2)nc(-c2ccc3c(c2)CCNC3)c2c1CCC2 [compound 2] |  | > 25 |  |  |  |
| C=CC(=O)Nc1cccc(-c2nc(-c3ccc4c(c3)CCC(O)C4)c3ccsc3c2-c2ccc(F)cc2OCCOC)c1 (stereo not shown) [compound 57] |  | > 25 |  |  | B (50%<percent of modification <75%) |
| COCCOc1cc(F)ccc1-c1c(-c2cccc(C#N)c2)nc(-c2ccc3c(c2)CCNC3)c2ccsc12 [Compound 8] | > 10 | > 25 |  |  |  |
| COCCOc1cc(F)ccc1-c1c(-c2c[nH]cn2)nc(-c2ccc3c(c2)CCNC3)c2ccsc12 [compound 34] |  | 5 to 25 |  |  |  |
| C=CC(=O)N1CCC(n2cc(-c3nc(-c4ccc5c(c4)CNC(=O)C5)c4ccsc4c3-c3ccc(F)cc3OCCOC)cn2)CC1 [compound 50] |  | 5 to 25 | < 0.1 |  | A (percent of modification of PIK3CA protein ≥75%) |
| C=CC(=O)N1CCC(n2cc(-c3nc(-c4cnn(C)c4)c4ccsc4c3-c3ccc(F)cc3OCCOC)cn2)CC1 [compound 49] |  | > 25 | 0.1 to 1 |  | A (percent of modification of PIK3CA protein ≥75%) |
| COCCOc1cc(F)ccc1-c1c(-c2cnn(C3CCN(C(=O)/C=C/CN(C)C)C3)c2)nc(-c2ccc3c(c2)CCNC3)c2ccsc12 (stereo not shown) [compound 56] |  | 5 to 25 |  |  | B (50%<percent of modification <75%) |
| COCCOc1ccccc1-c1c(-c2ccccc2)nc(-c2ccc3c(c2)CCNC3)c2c1CCC2 [compound 3] |  | > 25 |  |  |  |
| C=CC(=O)N1CCC(n2cc(-c3nc(-c4ccc5c(c4)CCNC5)c4ccsc4c3-c3ccc(F)cc3OCCOC)cn2)C1 (stereo not shown) [compound 28] |  | 5 to 25 | < 0.1 |  | A (percent of modification of PIK3CA protein ≥75%) |
| COCCOc1ccccc1-c1c(-c2ccc(=O)n(C)c2)nc(-c2ccc3c(c2)CCNC3)c2c1CCC2 [compound 5] |  | > 25 |  |  |  |
| COCCOc1cc(F)ccc1-c1c(-c2cnn(CC(=O)N3CCCC3)c2)nc(-c2ccc3c(c2)CCNC3)c2ccsc12 [compound 25] |  | 5 to 25 |  |  |  |
| C=CC(=O)N1CC[C@H](n2cc(-c3nc(-c4ccc5c(c4)CNC(=O)C5)c4ccsc4c3-c3ccc(F)cc3OCCOC)cn2)C1 [compound 54] |  | 5 to 25 | < 0.1 |  | A (percent of modification of PIK3CA protein ≥75%) |
| COCCOc1cc(F)ccc1-c1c(-c2ccc3cc[nH]c3c2)nc(-c2ccc3c(c2)CCNC3)c2ccsc12 [compound 45] |  | 5 to 25 |  |  |  |
| COCCOc1cc(F)ccc1-c1c(-c2cnn(CCC(=O)NC(C)(C)C)c2)nc(-c2ccc3c(c2)CCNC3=O)c2ccsc12 [compound 37] |  | 5 to 25 |  |  |  |

The next lines start with results.

| IC50 [1] [µM] | IC50 [2] [µM] | IC50 (pAKT in BT474 cells) [µM] | IC50 (pAKT in BT474 cells; Homo sapiens, BT-474) [µM] | Structure (SMILES) | % of modification [3] |
| --- | --- | --- | --- | --- | --- |
| 1 to 10 | 5 to 25 |  |  | COCCOc1cc(F)ccc1-c1c(-c2cnn(CC(C)(C)C)c2)nc(-c2ccc3c(c2)CCNC3)c2ccsc12 [compound 13] |  |
| 1 to 10 | < 5 |  |  | COCCOc1cc(F)ccc1-c1c(-c2cccc(NC(=O)C(C)C)c2)nc(-c2ccc3c(c2)CCNC3)c2ccsc12 [compound 33] |  |
|  | 5 to 25 | 0.1 to 1 |  | C=CC(=O)NC1CC(n2cc(-c3nc(-c4ccc5c(c4)CCNC5)c4ccsc4c3-c3ccc(F)cc3OCCOC)cn2)C1 (stereo not shown) [compound 60] | A (percent of modification of PIK3CA protein ≥75%) |
|  | 5 to 25 | 0.1 to 1 |  | C=CC(=O)Nc1cccc(-c2nc(-c3cnn(C)c3)c3ccsc3c2-c2ccc(F)cc2OCCOC)c1 [compound 52] | A (percent of modification of PIK3CA protein ≥75%) |
|  | 5 to 25 | 0.1 to 1 |  | C=CC(=O)N1CC[C@H](n2cc(-c3nc(-c4cnn(C)c4)c4ccsc4c3-c3ccc(F)cc3OCCOC)cn2)C1 [compound 53] | A (percent of modification of PIK3CA protein ≥75%) |
|  | 5 to 25 |  |  | C=CC(=O)NCCn1cc(-c2nc(-c3ccc4c(c3)CCNC4)c3ccsc3c2-c2ccc(F)cc2OCCOC)cn1 [compound 22] | B (50%<percent of modification <75%) |
| 1 to 10 | 5 to 25 |  |  | Fc1ccc(-c2c(-c3ccccc3)nc(-c3ccc4c(c3)CCNC4)c3ccsc23)c(OCc2ncccc2F)c1 [compound 7] |  |
|  | 5 to 25 |  |  | COCCOc1cc(F)ccc1-c1c(-c2nc(CO)cs2)nc(-c2ccc3c(c2)CCNC3)c2ccsc12 [compound 39] |  |
|  | 5 to 25 |  |  | C=CC(=O)n1cnc(-c2nc(-c3ccc4c(c3)CCNC4)c3ccsc3c2-c2ccc(F)cc2OCCOC)c1 [compound 35] | D (percent of modification <25%) |
|  | 5 to 25 |  |  | C=CC(=O)NCc1csc(-c2nc(-c3ccc4c(c3)CCNC4)c3ccsc3c2-c2ccc(F)cc2OCCOC)n1 [compound 38] | B (50%<percent of modification <75%) |
| 1 to 10 | 5 to 25 |  |  | COCCOc1cc(F)ccc1-c1c(-c2cccc(CN)c2)nc(-c2ccc3c(c2)CCNC3)c2ccsc12 [compound 16] |  |
| 1 to 10 | 5 to 25 |  |  | COCCOc1ccccc1-c1c(-c2cccc(Cl)c2)nc(-c2ccc3c(c2)CCNC3)c2ccsc12 [compound 6] |  |
|  | 5 to 25 |  |  | COCCOc1cc(F)ccc1-c1c(-c2cnn(CCNC(=O)C(C)C)c2)nc(-c2ccc3c(c2)CCNC3)c2ccsc12 [compound 21] |  |
| 1 to 10 | < 5 |  |  | COCCOc1cc(F)ccc1-c1c(-c2cccc(C(=O)N3CCCC3)c2)nc(-c2ccc3c(c2)CCNC3)c2ccsc12 [compound 15] |  |
|  | 5 to 25 | 0.1 to 1 |  | C=CC(=O)NC1CC(n2cc(-c3nc(-c4ccc5c(c4)CCNC5)c4ccsc4c3-c3ccc(F)cc3OCCOC)cn2)C1 (stereo not shown) [compound 55] | A (percent of modification of PIK3CA protein ≥75%) |
|  | < 5 | < 0.1 |  | C=CC(=O)N1CC[C@H](n2cc(-c3nc(-c4ccc5c(c4)CCNC5)c4ccsc4c3-c3ccc(F)cc3OCCOC)c(C)n2)C1 [compound 59] | A (percent of modification of PIK3CA protein ≥75%) |
|  | < 5 |  |  | COCCOc1cc(F)ccc1-c1c(-c2cccc(CNC(=O)C3CCCC3)c2)nc(-c2ccc3c(c2)CCNC3)c2ccsc12 [compound 27] |  |
|  | < 5 |  |  | COCCOc1cc(F)ccc1-c1c(-c2cnn(CC(=O)NC(C)(C)C)c2)nc(-c2ccc3c(c2)CCNC3)c2ccsc12 [compound 24] |  |
|  | < 5 | > 3 |  | COCCOc1cc(F)ccc1-c1c(-c2ccc3c(c2)CCN(C)C3)nc(-c2ccc3c(c2)CCNC3)c2ccsc12 [compound 229] |  |

From US20250230138A1, “COMPOUNDS HAVING A T-STRUCTURE FORMED BY AT LEAST FOUR CYCLES FOR USE IN THE TREATMENT OF CANCER AND OTHER INDICATIONS” (TheRas, Inc., priority 2022, published 2025)
